In patent publication US20230332103A1, “Methods and Compositions for Generating Human Forebrain Neural Progenitor Cells and for Maturation Thereof to Parvalbumin+ Interneurons” (Trailhead Biosystems Inc., priority 2021, published 2023):
“Also recorded” adds a separate entry of the source.

Key:
[1] = system: stage 4 neural stem cells; experiment: factor criticality analysis of stage 5 recipe; assay type: cell-based, human; conditions: for effect on expression of somatostatin: FIG. 28; for contribution to expression of PVALB (Parvalbumin): FIG. 28-30
Experimental: To assess the impact of elimination of each validated factor, we again used dynamic profile analysis and compared the expression level of genes of interest in the absence of each finalized factor while others are present.
In the stage 5 recipe, each of seven finalized factors were removed while other factors were kept present and expression levels of PVALB and SST were assessed compared to the presence of all seven factors. […] 2-phospho-L-ascorbic acid, BDNF, IGF-1 were included in the stage 5 recipe (FIG. 28). […] Others were also found to increase the expression of somatostatin that was SST interneuron marker. So, they are excluded from the recipe and N2 was included in the stage 5 recipe (FIG. 29). […] Sodium pyruvate was included in the stage 5 recipe (FIG. 30).

[2] = system: cells after termination of stage 4 treatment; experiment: HD-DoE 8-factor experiment for stage 5 recipe (JQ1, Indolactam-V, Oleic acid, BDNF, IGF-1, 2-phospho-L-Ascorbic acid, Albumax, MK2206), optimized for PVALB; assay type: cell-based, human; conditions: for factor contribution on expression of PVALB: important input for maximum expression of PVALB, FIG. 21; for impact on expression of PVALB: model maximized for PVALB / dynamic profile, FIG. 21 and 22
Text: To further guide the differentiation of forebrain-committed neural stem cells to PVALB interneuron cells at stage 5, we performed a HD-DoE experiment for 3 days after termination of stage 4 treatment. At this time, we focused on maximum expression of PVALB that was expressed in Parvalbumin (+) interneurons and minimum expression of Somatostatin that is another type of interneurons. This 8-factor experiment included JQ1, Indolactam-V, Oleic acid, BDNF, IGF-1, 2-phospho-L-Ascorbic acid, Albumax, MK2206. […] Using dynamic profile analysis, we modified the model to achieve the maximum expression level of PVALB simultaneously and therefore 2-phospho-L-ascorbic acid, BDNF, IGF1 were included while MK2206, Albumax, and JQ1 are excluded (FIG. 22). Considering the model at different optimization settings for maximum differentiation of cells toward ventral forebrain, the recipe for stage 5 of differentiation included BDNF, IGF-1, 2-phospho-L-ascorbic acid from this HD-Doe experiment.

[3] = system: forebrain-committed neural stem cells (stage 1 neural stem cells); experiment: factor criticality analysis (dynamic profile analysis) of stage 2 recipe; assay type: cell-based, human; conditions: stage 2 recipe, other three factors present; for expression level of PAX6 in the absence of the effector: 0 with all four factors; for expression level of NKX2-2 in the absence of the effector: 100 with all four factors; for expression level of NKX2-1 in the absence of the effector: 5000 with all four factors
Experimental: (§1) To assess the impact of the elimination of each validated factor, dynamic profile analysis was used and compared the expression level of genes of interest in absence of each finalized factor while others are present.
In the stage 2 recipe, each of the four finalized factors were removed while the other three factors remained present and expression levels of NKX2-1, PAX6 and NKX2-2 were assessed compared to presence of all four factors. The results are summarized in FIG. 13A-B. Absence of PD0325901 reduced the levels of NKX2-1 and NKX2-2 while increasing PAX6 from 5000 to 3200, 100 to 0 and 0 to 5000, respectively. […] Removing XAV939 reduced the levels of NKX2-1 from 5000 to 3000, while increasing both PAX6 and NKX2-2 to 10000 and 200, respectively. Another observation was the interaction between XAV939 and Purmorphamine. In the absence of XAV939, the impact of Purmorphamine on NKX2-1 became negative and, as it is shown in interaction plot of FIG. 14, the level of NKX2-1 is higher when both factors are present.

[4] = system: forebrain-committed neural stem cells (stage 1 neural stem cells); experiment: HD-DoE 12-factor experiment for stage 2 recipe, optimized for NKX2-1; assay type: cell-based, human; conditions: model maximized for NKX2-1 / dynamic profile, FIG. 7 and 8
Experimental: To further guide the differentiation of forebrain-committed neural stem cells to ventral forebrain neural stem cells at stage 2, a HD-DoE experiment was performed for 3 days after termination of stage 1 treatment. At this time, we focused on maximum expression of NKX2-1 that is expressed in ventral forebrain region and minimum expression of PAX6 that is expressed in dorsal forebrain region. This 12-factor experiment included LDN193189, BMP7, PD0325901, MK2206, A8301, XAV939, CHIR99021, Purmorphamine, SANT-1, AGN193109, TTNPB and GSI-XX.

[5] = system: human pluripotent stem cells; experiment: additional HD-DoE experiment for stage 1 (forebrain differentiation from pluripotency), optimized for FEZF2; assay type: cell-based; conditions: for impact on expression of FEZF2: dynamic profile, FIG. 6; for factor contribution on expression of FEZF2: positive impact, additional stage 1 experiment optimized for FEZF2, FIG. 5
Experimental: To identify the recipe for stage 1 of differentiation, 96 different combinations of effectors generated using Design-of-Experiments compression through D-optimality were robotically prepared. The effector combinations were prepared in a basal media and were subsequently added to the cells, which were then allowed to differentiate. Three days later RNA extraction was performed, and gene expression was obtained using quantitative PCR analysis. The data were normalized and modeled using partial least squares regression analysis to the effector design, resulting in the generation of gene-specific models, which after model tuning for maximal Q2 predictive power, provided explanation of the effectors ability to control the expression of individual genes, combinatorially, and individually. Solutions within the tested space could then be explored to address desirability.
To further enhance the conditions for forebrain differentiation from pluripotency, an additional HD-DoE experiment was performed. Additional gene regulatory models were obtained that were used for preparation of the differentiation protocol. The factors in this experiment included LDN193189, PD173074, BLU9931, Purmorphamine, SC79, MK2206, ZM336372, PD0325901, CHIR99021, XAV939, UCLA-GP130, Tofacitinib and GO6983. […] Dynamic profile analysis was also used to assess the interaction between the effectors.

[6] = system: human pluripotent stem cells; experiment: factor criticality analysis (dynamic profile analysis) of stage 1 recipe; assay type: cell-based; parameters: unit not given here; conditions: other five factors present; for expression level of FEZF2 when the effector is removed: 2000 with all six factors; for expression level of SIX3 when the effector is removed: 3000 with all six factors; for expression level of OTX2 when the effector is removed: 5500 with all six factors
Experimental: as §1
In the stage 1 recipe, each of the six finalized factors were removed individually while the other five factors were present and expression levels of forebrain genes was assessed compared to the presence of all six factors together. The results are summarized in FIG. 11A-B. When LDN193189 was removed, expression levels of FEZF2, OTX2 and SIX3 were decreased drastically from 2000 to 1000, 5500 to 4000 and 3000 to 0, respectively. […] When Purmorphamine was removed, levels of FEZF2 and SIX3 were decreased to 1000 and below 3000, while levels of OTX2 increased to 6500.

[7] = system: human pluripotent stem cells; experiment: HD-DoE 12-factor experiment for stage 1 recipe, gene expression by quantitative PCR after 3 days; assay type: cell-based; conditions: for factor contribution on expression of OTX2: model of maximum expression of OTX2
Text: This example utilizes a method of High-Dimensional Design of Experiments (HD-DoE), as previously described in Bukys et al. (2020) […] 23:101346. The method employs computerized design geometries to simultaneously test multiple process inputs and offers mathematical modeling of a deep effector/response space. The method allows for finding combinatorial signaling inputs that control a complex process, such as during cell differentiation. It allows testing of multiple plausible critical process parameters, as such parameters impact output responses, such as gene expression. Because gene expression provides hallmark features of the phenotype of, for example, a human cell, the method can be applied to identify, and understand, which signaling pathways control cell fate. In the current example, the HD-DOE method was applied with the intent to find conditions for induction of […] neural progenitor-expressed genes, directly from the pluripotent stem cell state. To develop the recipe for each stage, the impact of agonists and antagonists of multiple signaling pathways (herein called effectors) on the expression of two sets of 53 pre-selected genes, after a 3-day treatment, has been tested and modeled. These effectors are small molecules or proteins that are commonly used during stepwise differentiation of stem cells to specific fates. Choice of the effectors were based on current literature on neural induction in forebrain region of developing brain and differentiation of stem cells to neural progenitors. To test the effectors, experiments with at least 8 factors were designed that can assess the response of cells to 48 or more different combinations of effectors in a range of concentrations. To analyze the models, we focused on expression of genes involved in development and patterning of the anterior neuroectoderm and forebrain including OTX2 (Hoch et al. (2015) Cell Reports 12:482-494), SIX3 (Lagutin et al. (2003) Genes & Development 17:368-379) and FEZF2 (Zhang et al. (2014) Development 141:4794-[…]). At later stages we focused on dorsoventral patterning of telencephalon and gene expressed in ventral forebrain including NKX2-1 and absence of PAX6 which is a dorsal forebrain marker (Stoykova et al. (2000) J. Neurosci. 20:8042-8050). The impact of each effector on gene expression level is defined by a parameter called factor contribution that is calculated for each effector during the modeling. To identify the recipe for stage 1 of differentiation, 96 different combinations of effectors generated using Design-of-Experiments compression through D-optimality were robotically prepared. The effector combinations were prepared in a basal media and were subsequently added to the cells, which were then allowed to differentiate. Three days later RNA extraction was performed, and gene expression was obtained using quantitative PCR analysis. […] Solutions within the tested space could then be explored to address desirability. Optimizing for maximal expression of SIX3 at 3300 and FEZF2 1355 expression values led to robust solutions. This model was derived from testing 12 effectors including AGN193109, LDN193189, CHIR99021, XAV939, IGF2, Purmorphamine, 4-oxo-RA, TTNPB, SR11237, FGF8, PD0325901 and […]. […] The model was also optimized for maximum expression of FEZF2 separately at 3576 expression value to find any additional factors that can boost expression of forebrain genes. […] To find the set of factors that have the potential to optimize all 3 genes in this experiment, a new assessment was done through dynamic profile analysis with focus on maximal expression of OTX2, FEZF2 and SIX3.

O=C1O[C@H]([C@@H](O)CO)C(O)=C1OP(=O)(O)O [2-phospho-L-ascorbic acid]
effect on expression of somatostatin [1]: did not change
contribution to expression of PVALB (Parvalbumin) [1]: positive contribution
factor contribution on expression of PVALB [2]: 15.04
impact on expression of PVALB [2]: increase its expression level
impact on expression of PVALB ([2]; listed as 2-phospho-L-Ascorbic acid): positive impact

CC(C)[C@H]1C(=O)N[C@H](CO)Cc2c[nH]c3cccc(c23)N1C [Indolactam-V]
impact on expression of PVALB [2]: increase its expression level; also recorded: positive impact

CCCCCCCC/C=C\CCCCCCCC(=O)OC[C@@H](O)COP(=O)(O)O [O-LPA, 1-Oleoyl lysophosphatidic acid]
contribution to expression of GAD1 ([1]; FIG. 31): contribute to the expression
contribution to expression of LHX6 ([1]; FIG. 31): contribute to the expression

CCCCCCCC/C=C\CCCCCCCC(=O)O [Oleic acid]
impact on expression of PVALB [2]: increase its expression level; also recorded: positive impact

O=C(NOC[C@H](O)CO)c1ccc(F)c(F)c1Nc1ccc(I)cc1F [PD0325901]
expression level of PAX6 in the absence of the effector [3]: 5000
expression level of NKX2-2 in the absence of the effector [3]: 0
expression level of NKX2-1 in the absence of the effector [3]: 3200
impact on expression of NKX2-1 [4]: increase its expression level; also recorded: Positive impact
impact on expression of FEZF2 [5]: positive impact
factor contribution on expression of FEZF2 [5]: 15
expression level of FEZF2 when the effector is removed [6]: drop
expression level of SIX3 when the effector is removed [6]: did not have a significant impact
expression level of OTX2 when the effector is removed [6]: did not have a significant impact
factor contribution on expression of OTX2 ([7]; positive impact): low
factor contribution on expression of FEZF2 ([7]; positive impact, model optimized for maximum expression of FEZF2): 10

Oc1nc(-c2ccc(C(F)(F)F)cc2)nc2c1CSCC2 [XAV939]
expression level of PAX6 in the absence of the effector [3]: 10000
expression level of NKX2-2 in the absence of the effector [3]: 200
expression level of NKX2-1 in the absence of the effector [3]: 3000
impact on expression of NKX2-1 [4]: increase its expression level; also recorded: Positive impact
impact on expression of FEZF2 [5]: positive impact
factor contribution on expression of FEZF2 [5]: 12
expression level of FEZF2 when the effector is removed [6]: 1700
expression level of SIX3 when the effector is removed [6]: 1000
expression level of OTX2 when the effector is removed [6]: 5000
impact on expression of OTX2 ([7]; dynamic profile analysis, FIG. 4): positive impact
factor contribution on expression of OTX2 ([7]; positive impact): low
factor contribution on expression of SIX3 ([7]; positive impact, model optimized for maximal expression of SIX3, 3-day treatment): 5

B1: BDNF: brain-derived neurotrophic factor, ligand of BDNFR signaling pathway (protein, UniProt P23560 19-247, looked up)
Neurotrophic factor BDNF …: APMKEANIRGQGGLAYPGVRTHGTLESVNGPKAGSRGLTSLADTFEHVIEELLDEDQKVRPNEENNKDADLYTSRVMLSSQVPLEPPLLFLLEEYKNYLDAANMSMRVRRHSDPARRGELSVCDSISEWVTAADKKTAVDMSGGTVTVLEKVPVSKGQLKQYFYETKCNPMGYTKEGCRGIDKRHWNSQCRTTQSYVRALTMDSKKRIGWRFIRIDTSCVCTLTIKRGR
effect on expression of somatostatin [1]: did not change
contribution to expression of PVALB (Parvalbumin) [1]: positive contribution
factor contribution on expression of PVALB [2]: 14.6
impact on expression of PVALB [2]: increase its expression level; also recorded: positive impact
